# Source: patent US20230086702A1, “SUBSTITUTED 2-AMINO-PYRAZOLYL-[1,2,4]TRIAZOLO[1,5A]PYRIDINE DERIVATIVES AND USE THEREOF” (The Johns Hopkins University, priority 2019, published 2023)
# Key:
# LZK = molecular target: T1, LZK (Homo sapiens, UniProt O43283); assay: LZK biochemical assay (TR-FRET, MKK7 phosphorylation); conditions: LZK catalytic domain, MKK7 substrate, 15 μM ATP
# T1 construct: 10 nM LZK, catalytic domain, Carna Biosiences in assay buffer; purchased Carna Biosciences ('Carna Biosiences' [sic])
# T1 sequence (O43283 168-409 limits assumed): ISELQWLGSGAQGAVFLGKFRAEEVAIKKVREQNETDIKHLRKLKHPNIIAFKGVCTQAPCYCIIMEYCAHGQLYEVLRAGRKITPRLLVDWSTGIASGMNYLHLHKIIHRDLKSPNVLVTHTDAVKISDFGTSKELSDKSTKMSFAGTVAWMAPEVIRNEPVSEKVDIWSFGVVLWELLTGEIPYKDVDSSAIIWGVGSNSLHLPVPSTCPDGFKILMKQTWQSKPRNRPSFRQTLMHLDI
# Procedure: (§1) LZK assay is a biochemical assay format designed to screen for inhibitors of LZK. Enzymatic activity of LZK is measured by monitoring phosphorylation of the physiological substrate MKK7 (MAP2K7, Dual specificity mitogen-activated protein kinase kinase 7). Phosphorylation is detected by a TR-FRET system whereby His-tagged MKK7 is labeled by a XL665-labeled anti-His antibody (FRET acceptor, emission 665 nm). LZK phosphorylates MKK7 at T275/S277 which is detected by an Eu-labeled anti-phospho-MKK7 (T275/S277) antibody (FRET donor, excitation 340 nm). Phosphorylation of MKK7 results in an increased TR-FRET signal (Ratio XL665-channel/Eu-channel) and inhibition of enzymatic activity of LZK decreases the TR-FRET signal.
# All indicated concentrations final concentrations.
# (§2) Detection buffer: 25 mM Tris/HCl pH 7.5, 100 mM EDTA, 100 mM NaCl, 200 mM KF, 0.01% Tween 20, 1:500 Smart Block.
# DLK = molecular target: T2, DLK (Homo sapiens, UniProt Q12852); assay: DLK biochemical assay (TR-FRET, MKK7 phosphorylation); conditions: DLK catalytic domain, MKK7 substrate, 60 μM ATP
# T2 construct: 10 nM DLK, catalytic domain, Carna Biosiences; purchased Carna Biosciences ('Carna Biosiences' [sic])
# T2 sequence (Q12852 125-366 limits assumed): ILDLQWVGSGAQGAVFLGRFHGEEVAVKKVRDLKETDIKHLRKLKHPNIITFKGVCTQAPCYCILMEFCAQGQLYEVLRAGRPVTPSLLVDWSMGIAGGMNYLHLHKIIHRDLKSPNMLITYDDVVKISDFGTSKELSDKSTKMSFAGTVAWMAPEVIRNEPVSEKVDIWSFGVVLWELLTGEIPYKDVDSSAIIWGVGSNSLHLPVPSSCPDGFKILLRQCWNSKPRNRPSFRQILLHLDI
# Procedure: as §1, with “DLK assay” for “LZK assay”, “of DLK.” for “of LZK.”, “of DLK” for “of LZK”, “nm). DLK” for “nm). LZK”, “at T275/S277,” for “at T275/S277”
# All indicated concentrations are final concentrations.
# as §2
SMILES,IC50 (LZK) [nM],IC50 (DLK) [nM]
"CC[C@H](C)NC(=O)c1cc(-c2cnn(C(c3ccc(C(F)F)nc3)C(C)C)c2)cn2nc(N)nc12 (mixture of isomers) [Example I-67, 2-Amino-N-[(2S)-butan-2-yl]-6-(1-{1-[6-(difluoromethyl)pyridin-3-yl]-2-methylpropyl}-1H-pyrazol-4-yl)[1,2,4]triazolo[1,5-a]pyridine-8-carboxamide]",5.6,1.1
"CCC(c1ccc(C(F)(F)F)nc1)n1cc(-c2cc(C(=O)N[C@@H](C)CC)c3nc(N)nn3c2)cn1 (mixture of isomers) [Example I-70, 2-Amino-N-[(2S)-butan-2-yl]-6-(1-{1-[6-(trifluoromethyl)pyridin-3-yl]propyl}-1H-pyrazol-4-yl)[1,2,4]triazolo[1,5-a]pyridine-8-carboxamide]",6.5,2.1
"CC[C@H](C)NC(=O)c1cc(-c2cnn(C(c3ccc(C(F)(F)F)nc3)C(C)C)c2)cn2nc(N)nc12 (mixture of isomers) [Example I-73, 2-Amino-N-[(2S)-butan-2-yl]-6-(1-{2-methyl-1-[6-(trifluoromethyl)pyridin-3-yl]propyl}-1H-pyrazol-4-yl)[1,2,4]triazolo[1,5-a]pyridine-8-carboxamide]",5.8,1.6
"CC[C@H](C)NC(=O)c1cc(-c2cnn(C(c3ccc(C(F)(F)F)nc3)C3CCOCC3)c2)cn2nc(N)nc12 (mixture of isomers) [Example I-76, 2-Amino-N-[(2S)-butan-2-yl]-6-(1-{tetrahydro-2H-pyran-4-yl[6-(trifluoromethyl)pyridin-3-yl]methyl}-1H-pyrazol-4-yl)[1,2,4]triazolo[1,5-a]pyridine-8-carboxamide]",1.1,0.5
"CC[C@H](C)NC(=O)c1cc(-c2cnn(C(c3ccc(C(F)(F)F)nc3)C3CCN(C(=O)OC(C)(C)C)CC3)c2)cn2nc(N)nc12 (mixture of isomers) [Example I-79, tert-Butyl 4-{(4-{2-amino-8-[(2S)-butan-2-ylcarbamoyl][1,2,4]triazolo[1,5-a]pyridin-6-yl}-1H-pyrazol-1-yl)[6-(trifluoromethyl)pyridin-3-yl]methyl}piperidine-1-carboxylate]",1.4,0.8
"CCC(c1ccc(OCC(F)(F)F)nc1)n1cc(-c2cc(C(=O)N[C@@H](C)CC)c3nc(N)nn3c2)cn1 (mixture of isomers) [Example I-85, 2-Amino-N-[(2S)-butan-2-yl]-6-(1-{1-[6-(2,2,2-trifluoroethoxy)pyridin-3-yl]propyl}-1H-pyrazol-4-yl)[1,2,4]triazolo[1,5-a]pyridine-8-carboxamide]",38,4.7
"CC[C@H](C)NC(=O)c1cc(-c2cnn(C(c3ccc(OCC(F)(F)F)nc3)C(C)C)c2)cn2nc(N)nc12 (mixture of isomers) [Example I-88, 2-Amino-N-[(2S)-butan-2-yl]-6-(1-{2-methyl-1-[6-(2,2,2-trifluoroethoxy)pyridin-3-yl]propyl}-1H-pyrazol-4-yl)[1,2,4]triazolo[1,5-a]pyridine-8-carboxamide]",120,7.5
"CC[C@H](C)NC(=O)c1cc(-c2cnn(C(c3ccnc(C(F)(F)F)c3)C(C)C)c2)cn2nc(N)nc12 (mixture of isomers) [Example I-91, 2-Amino-N-[(2S)-butan-2-yl]-6-(1-{2-methyl-1-[2-(trifluoromethyl)pyridin-4-yl]propyl}-1H-pyrazol-4-yl)[1,2,4]triazolo[1,5-a]pyridine-8-carboxamide]",15,2.9
"CCC(c1ccc(C(F)F)nc1)n1cc(-c2cc(C(=O)N[C@@H](C)CC)n3nc(N)nc3c2)cn1 (mixture of isomers) [Example I-92, 2-Amino-N-[(2S)-butan-2-yl]-7-(1-{1-[6-(difluoromethyl)pyridin-3-yl]propyl}-1H-pyrazol-4-yl)[1,2,4]triazolo[1,5-a]pyridine-5-carboxamide]",3.9,2
